Assay results: patent US6620911B1, “Anti-cryptococcal peptides” (Arizona Board of Regents, acting for and on behalf of …, priority 1998, dated 2003)
In brackets after ≈: the same amount, converted by molar mass. Like-named read-outs stand apart in the source and are kept apart here.

Tests used:
[1] = test system: Candida albicans; assay: Disk diffusion susceptibility testing; type: cell-based; conditions: ATCC 90028
Method: (§1) Antimicrobial activity was assayed by disk susceptibility tests according to the NCCLS (National Committee for Clinical Laboratory Standards, Performance Standards for Antimicrobial Disk Susceptibility Tests-Sixth Edition: Approved standard M2-A6, NCCLS, Wayne, Pa., 1997). Inocula were adjusted to a density of 0.10 at 625 nm in SDA broth, and spread on SDA plates. Excess moisture was allowed to absorb for 10 min before applying dried disks containing two-fold dilutions of the drugs. Test plates were incubated at 35° C. (25° C. for C. albidus and C. laurentii), and zones of inhibition recorded after 48 h. The minimum inhibitory concentration (MIC) was defined as the lowest concentration of drug resulting in a clear zone of growth inhibition. Disk susceptibility testing of Staphylococcus aureus, Enterococcus faecalis, Escherichia coli and Neisseria gonorrhoeae was also performed.

[2] = test system: Candida glabrata; assay: Disk diffusion susceptibility testing; type: cell-based; conditions: ATCC 90030
Method: as §1

[3] = test system: Cryptococcus albidus; assay: Disk diffusion susceptibility testing; type: cell-based; conditions: ATCC 66030
Method: as §1

[4] = test system: Cryptococcus laurentii; assay: Disk diffusion susceptibility testing; type: cell-based; conditions: ATCC 66036
Method: as §1

[5] = test system: Cryptococcus neoformans; assay: Disk diffusion susceptibility testing; type: cell-based; conditions: ATCC 90112
Method: as §1

[6] = test system: Cryptococcus neoformans; assay: Broth macrodilution assay (MIC, MFC), ATCC strains; type: cell-based; conditions: for MFC relative to MIC: C. neoformans #14116
Method: (§2) Dolastatin 10 and modifications were screened against yeasts by the broth macrodilution assay according to the NCCLS (National Committee for Clinical Laboratory Standards, Reference Method for Broth Dilution Antifungal Susceptibility Testing of Yeasts: Approved Standard M27-A, NCCLS, Wayne, Pa., 1997). Yeasts were suspended and diluted as recommended to yield final inocula ranging from 0.5-2.5×10^3 colony forming units (CFU)/ml. Tests were performed in sterile 12×75 mm plastic tubes containing two-fold dilutions of the peptides in 0.165 M morpholinepropanesulfonic acid (MOPS)-buffered RPMI 1640 medium (pH 7.0). One tube was left drug-free for a turbidity control. Tubes were incubated without agitation at 35° C. (25° C. for C. albidus and C. laurentii). MICs were determined after 72 h for Cryptococcus, and after
(§3) 48 h for other yeast genera. The MIC was defined as the lowest concentration of compound that inhibited all visible growth of the test organism.
(§4) Minimum fungicidal concentrations (MFCs) were determined by subculturing 0.1 ml from each tube with no visible growth in the MIC broth macrodilution series onto drug-free SDA plates. The plates were incubated at 35° C. for 48 h for Cryptococcus (25° C. for C. alhidus and C. laurentii), and 35° C. for 24 h for all other yeast and filamentous fungi.

[7] = test system: Candida albicans; assay: Broth macrodilution assay; type: cell-based; conditions: ATCC 90028
Method: as §2, §3, §4

[8] = test system: Candida glabrata; assay: Broth macrodilution assay; type: cell-based; conditions: ATCC 90030
Method: as §2, §3, §4

[9] = test system: Candida lusitaniae; assay: Broth macrodilution assay; type: cell-based; conditions: ATCC 42720
Method: as §2, §3, §4

[10] = test system: Candida parapsilosis; assay: Broth macrodilution assay; type: cell-based; conditions: ATCC 22019
Method: as §2, §3, §4

[11] = test system: Cryptococcus albidus; assay: Broth macrodilution assay; type: cell-based
Method: as §2, §3, §4

[12] = test system: Cryptococcus ater; assay: Broth macrodilution assay; type: cell-based; conditions: ATCC 14247
Method: as §2, §3, §4

[13] = test system: Cryptococcus laurentii; assay: Broth macrodilution assay; type: cell-based
Method: as §2, §3, §4

[14] = test system: Cryptococcus uniguttulatus; assay: Broth macrodilution assay; type: cell-based
Method: as §2, §3, §4

[15] = test system: Rhodotorula mucilaginosa; assay: Broth macrodilution assay; type: cell-based; conditions: ATCC 9449
Method: as §2, §3, §4

[16] = test system: Aspergillus fumigatus; assay: Broth macrodilution susceptibility testing of filamentous fungi; type: cell-based; conditions: ATCC 96918
Method: (§5) Broth macrodilution susceptibility testing of Aspergillus fumigatus and Rhizopus oligosporus was performed according to a proposed standardized procedure (Espinel-Ingroff et al., Multicenter evaluation of a proposed standardized procedure for antifungal susceptibility testing of filamentous fungi, J Clin Microbiol 1997, 35: 139-43) with slight modification. To induce conidium and sporangiospore formation, A. fumigatus and R. oligosporus were grown on PDA slants at 35° C. for 6 days. Fungal slants were covered with 1 ml of sterile 0.85% NaCl, and suspensions made by gently probing the colonies with the tip of a sterile pasteur pipette. The resulting mixture of hyphal fragments and conidia or sporangiospores was withdrawn, transferred to a sterile clear microfuge tube, and heavy particles were allowed to settle for 10 min. […] Susceptibility to the synthetic peptides was then determined by broth macrodilution assays as described above for the yeast cultures. MICs for the filamentous fungi were read after 24 h.
(§6) Minimum fungicidal concentrations (MFCs) were determined by subculturing 0.1 ml from each tube with no visible growth in the MIC broth macrodilution series onto drug-free SDA plates. […]

[17] = test system: Rhizopus oligosporus; assay: as above; type: cell-based; conditions: ATCC 22959
Method: as §5, §6

[18] = test system: fluconazole-resistant Cryptococcus neoformans; type: cell-based
From the text: (§7) Clinical isolates of C. neoformans were obtained from patient cerebrospinal fluid, blood, bone marrow, sputum, bronchial lavage and wound infections at the University of Virginia Medical Center, Strains clinically resistant to fluconazole (See: Jessup, C. J. et al, 1997; Poster #F-88, 37th ICAAC, Toronto, Canada) were provided by the Center for Medical Mycology, Case Western Reserve University. Yeast strains (except for C. albidus and C. laurentii) were maintained by single colony transfer on Sabouraud Dextrose Agar (SDA), pH 5.6 at 35° C. Cryptococcus albidus, C. laurentii and C. uniguttulatus (#66033) were maintained on SDA, pH 6.6 at 25° C., C. uniguttulatus (#34143) and C. ater on Yeast Morphology (YM) agar at 25° C. and filamentous fungi were maintained on Potato Dextrose Agar (PDA) slants at 35° C.
as §2, §3, §4

[19] = test system: Cryptococcus neoformans #90112; assay: Effect of host factors (pH, human serum) on broth macrodilution MICs and MFCs; type: cell-based
Method: as §2, §3, §4
Broth macrodilution assays were performed with RPMI prepared at pH 5, pH 6 and pH 7, and in RPMI, with and without 50% normal human serum (Lampire Biological Labs). Cryptococcus neoformans #90112 was used in each case.

[20] = human plasma, 37° C.; cited from earlier work
[21] = dog plasma, 37° C.; cited from earlier work
[22] = mouse plasma, 37° C.; cited from earlier work
[23] = mice, intravenous injection; cited from earlier work
[24] = cited from earlier work
[25] = test system: clinical isolates of C. neoformans; assay: Broth macrodilution (MIC, MFC), 19 clinical isolates; type: cell-based, Cryptococcus neoformans
From the text: as §7, §2, §3, §4

[26] = test system: C. neoformans (#90112); assay: Killing kinetics; type: cell-based, Cryptococcus neoformans; conditions: 1x, 4x, 8x MIC, FIG. 2
Method: Overnight cultures of C. neoformans (#90112) in Ph 7.0 MOPS-buffered RPMI 1640 medium were inoculated into the same medium containing multiples of the broth macrodilution MIC of the antifungal peptides, or an equivalent volume of DMSO. Cultures were shaken at 35° C., and aliquots aseptically removed at various times for dilution plating.

## CCC(C)C(C(CC(=O)N1CCC[C@H]1C(OC)C(C)C(=O)NC(Cc1ccccc1)C(=O)Nc1nnc(-c2ccccc2)s1)OC)N(C)C(=O)[C@@H](NC(=O)[C@H](C(C)C)N(C)C)C(C)C (stereo partly shown) [1b]
[1]
  MIC: >100 μg/disk
[2]
  MIC: >100 μg/disk
[3]
  MIC: >100 μg/disk
[4]
  MIC: >100 μg/disk
[5]
  MIC: 3.12-6.25 μg/disk
[6]
  MFC relative to MIC: sixteenfold greater than MICs

## CCC(C)C(C(CC(=O)N1CCC[C@H]1C(OC)C(C)C(=O)NC(Cc1ccccc1)C(=O)Nc1nc(SC)ns1)OC)N(C)C(=O)[C@@H](NC(=O)[C@H](C(C)C)N(C)C)C(C)C (stereo partly shown) [1c]
[1]
  MIC: >100 μg/disk
[2]
  MIC: >100 μg/disk
[5]
  MIC: 1.56-3.12 μg/disk
[6]
  MFC relative to MIC: sixteenfold greater than MICs

## CC[C@H](C)[C@@H]([C@@H](CC(=O)N1CCC[C@H]1[C@H](OC)[C@@H](C)C(=O)N[C@@H](Cc1ccccc1)c1nccs1)OC)N(C)C(=O)[C@@H](NC(=O)[C@H](C(C)C)N(C)C)C(C)C [1a, dolastatin 10]
[1]
  MIC: >100 μg/disk
[2]
  MIC: >100 μg/disk
[3]
  MIC: >100 μg/disk
[4]
  MIC: >100 μg/disk
[5]
  MIC: 25-50 μg/disk
[6]; ATCC 14116
  MFC: 6.25 µg/mL (≈ 7.96 µM)
  MIC: 3.12 µg/mL (≈ 3.97 µM)
[6]; ATCC 32045
  MFC: 1.56 µg/mL (≈ 1.99 µM)
  MIC: 0.78 µg/mL (≈ 0.993 µM)
[6]; ATCC 66031
  MFC: 1.56 µg/mL (≈ 1.99 µM)
  MIC: 0.78 µg/mL (≈ 0.993 µM)
[6]; ATCC 90112
  MFC: 1.56 µg/mL (≈ 1.99 µM)
  MIC: 0.78 µg/mL (≈ 0.993 µM)
[7]
  MFC: >25 µg/mL
  MIC: >50 µg/mL
[8]
  MFC: >50 µg/mL
  MIC: >50 µg/mL
[9]
  MIC: >50 µg/mL
[10]
  MIC: >50 µg/mL
[11]; ATCC 10666
  MIC: >50 µg/mL
[11]; ATCC 34140
  MIC: >50 µg/mL
[11]; ATCC 66030
  MIC: >50 µg/mL
[12]
  MIC: >50 µg/mL
[13]; ATCC 18803
  MIC: >50 µg/mL
[13]; ATCC 34142
  MIC: >50 µg/mL
[13]; ATCC 66036
  MIC: >50 µg/mL
[14]; ATCC 34143
  MIC: >50 µg/mL
[14]; ATCC 66033
  MIC: >50 µg/mL
[15]
  MIC: >50 µg/mL
[16]
  MIC: >50 µg/mL
[17]
  MIC: >50 µg/mL
[18]; strain 94-2011
  MFC: 1.56 µg/mL (≈ 1.99 µM)
  MIC: 0.78 µg/mL (≈ 0.993 µM)
[18]; strain 94-2406
  MFC: 0.0975 µg/mL (≈ 0.124 µM)
  MIC: 0.0487 µg/mL (≈ 0.062 µM)
[18]; strain 94-2483
  MFC: 0.39 µg/mL (≈ 0.497 µM)
  MIC: 0.195 µg/mL (≈ 0.248 µM)
[18]; strain 95-2792
  MFC: 3.12 µg/mL (≈ 3.97 µM)
  MIC: 0.78 µg/mL (≈ 0.993 µM)
[19]; 50% human serum
  MFC: 1.56 µg/mL (≈ 1.99 µM)
  MIC: 0.78 µg/mL (≈ 0.993 µM)
[19]; RPMI pH 5
  MFC: >50 µg/mL
  MIC: >50 µg/mL
[19]; RPMI pH 6
  MFC: 25 µg/mL (≈ 31.8 µM)
  MIC: 6.25 µg/mL (≈ 7.96 µM)
[19]; RPMI pH 7
  MFC: 1.56 µg/mL (≈ 1.99 µM)
  MIC: 0.78 µg/mL (≈ 0.993 µM)
[19]; no serum
  MFC: 1.56 µg/mL (≈ 1.99 µM)
  MIC: 0.78 µg/mL (≈ 0.993 µM)
[20]
  stable in plasma: at least 24 h
[21]
  stable in plasma: at least 24 h
[22]
  stable in plasma: at least 24 h
[23]
  estimated elimination half-life: 5.6 h
[24]; doses up to 200 μg/m^2
  toxicity in patients with advanced solid tumors: minimal toxicity
[24]; doses up to 455 μg/m^2
  toxicity in human cancer clinical trials: minimal toxicity

## CCC(C)C(C(CC(=O)N1CCC[C@H]1C(OC)C(C)C(=O)NC(CCSC)C(=O)Nc1cnc2ccccc2c1)OC)N(C)C(=O)[C@@H](NC(=O)[C@H](C(C)C)N(C)C)C(C)C (stereo partly shown) [1e]
[1]
  MIC: >100 μg/disk
[5]
  MIC: 25-50 μg/disk

## CCC(C)C(C(CC(=O)N1CCC[C@H]1C(OC)C(C)C(=O)NC(Cc1ccccc1)C(=O)OC)OC)N(C)C(=O)[C@@H](NC(=O)[C@H](C(C)C)N(C)C)C(C)C (stereo partly shown) [1d]
[1]
  MIC: >100 μg/disk
[3]
  MIC: >100 μg/disk
[4]
  MIC: >100 μg/disk
[5]
  MIC: 3.12-6.25 μg/disk
[25]; 19 clinical isolates
  MFC50: 0.39 µg/mL (≈ 0.513 µM)
  MFC90: 0.78 µg/mL (≈ 1.03 µM)
  MIC50 (MIC at which 50% of the isolates were inhibited): 0.195 µg/mL
  MIC90 (MIC at which 90% of the isolates were inhibited): 0.39 µg/mL
  clinical isolate MFCs, range: 0.0975 to 6.24 µg/mL
  share of clinical isolates with MFC/MIC ratio equal to 4: 26%
  share of clinical isolates with MFC/MIC ratio less than or equal to 2: more than 68%
[25]; 19 clinical isolates (not fluconazole-resistant strains)
  resistant clinical isolates: No resistant clinical isolates were found
[25]; clinical isolates
  recovery: MFCs after the recommended incubation period compared with one week later: no evidence of recovery
[19]; acidified RPMI
  effect of lowered pH on anticryptococcal activity: least affected by lowered pH
[26]
  fungicidal action, reductions in CFUs: most dramatic reductions in CFUs
